The values that follow come from patent publication US20250163018A1, “KEY AMINO ACID BASED ON PROTEIN-DRUG INTERACTIONS INDUCED NEW CRYSTAL FORMS OF TRELAGLIPTIN AND PREPARATION METHODS THEREOF” (GUANGDONG UNIVERSITY OF TECHNOLOGY, priority 2024, published 2025).

Values after ≈ are worked out from the molar mass of the structure shown. Where two headings read alike, the source gives them in different places.

A short description of this series: Equilibrium solubility of crystal forms by UV-Vis spectrophotometry (279 nm). The format is physicochemical. The source says: The specific operation was as follows: take samples of five new and original crystalline forms after reaching the dissolution equilibrium, filter them with 0.22 μm filter membrane, take appropriate amount of filtrate, according to the UV-Vis spectrophotometric method (Chinese Pharmacopoeia 2020 edition), determine the absorbance value at the wavelength of 279 nm, and substitute them into the standard curve to obtain the solubility of five new and original crystalline forms, as shown in Table 1.

The mark [1] stands for this setting: pH = 7.0 aqueous solution (deionized water).

`Cn1c(=O)cc(N2CCC[C@@H](N)C2)n(Cc2cc(F)ccc2C#N)c1=O` [original crystal form, 2-[[6-[(3R)-3-aminopiperidin-1-yl]-3-methyl-2,4-dioxopyrimidin-1-yl]methyl]-4-fluorobenzonitrile, reference compound] had a solubility (pH = 6.8 PBS) of 15.46 mg/mL (≈ 43.3 mM), a solubility under setting [1] of 3.40 mg/mL (≈ 9.51 mM) and a solubility (pH = 7.4 PBS) of 12.94 mg/mL (≈ 36.2 mM).

`Cn1c(=O)cc(N2CCC[C@@H](N)C2)n(Cc2cc(F)ccc2C#N)c1=O` [TRE-V, 2-[[6-[(3R)-3-aminopiperidin-1-yl]-3-methyl-2,4-dioxopyrimidin-1-yl]methyl]-4-fluorobenzonitrile]: the solubility was 76.01 mg/mL (≈ 213 mM) (pH = 1.2 hydrochloric acid), 36.12 mg/mL (≈ 101 mM) (pH = 6.8 PBS), 12.64 mg/mL (≈ 35.4 mM) under setting [1] and 37.51 mg/mL (≈ 105 mM) (pH = 7.4 PBS).

With `Cn1c(=O)cc(N2CCC[C@@H](N)C2)n(Cc2cc(F)ccc2C#N)c1=O` [TRE-III, 2-[[6-[(3R)-3-aminopiperidin-1-yl]-3-methyl-2,4-dioxopyrimidin-1-yl]methyl]-4-fluorobenzonitrile], the solubility is, setting by setting: (pH = 1.2 hydrochloric acid) 39.76 mg/mL (≈ 111 mM); (pH = 6.8 PBS) 35.90 mg/mL (≈ 100 mM); under setting [1], 14.93 mg/mL (≈ 41.8 mM); (pH = 7.4 PBS) 28.26 mg/mL (≈ 79.1 mM).

Turning to `Cn1c(=O)cc(N2CCC[C@@H](N)C2)n(Cc2cc(F)ccc2C#N)c1=O` [TRE-I, 2-[[6-[(3R)-3-aminopiperidin-1-yl]-3-methyl-2,4-dioxopyrimidin-1-yl]methyl]-4-fluorobenzonitrile], the solubility is, setting by setting: (PBS, pH 6.8, aqueous buffer, thermodynamic from solid, pH = 6.8 PBS, read-out: solubility) 34.2 mg/mL (≈ 95.8 mM); (PBS, pH 7.4, aqueous buffer, thermodynamic from solid, pH = 7.4 PBS, read-out: solubility) 28.6 mg/mL (≈ 80 mM); (deionized water, pH 7, water, thermodynamic from solid, pH = 7.0 aqueous solution (deionized water), read-out: solubility) 13.2 mg/mL (≈ 36.9 mM); (hydrochloric acid solution, pH 1.2, simulated gastric fluid, thermodynamic from solid, pH = 1.2 hydrochloric acid, read-out: solubility) 54 mg/mL (≈ 151 mM).

As to `Cn1c(=O)cc(N2CCC[C@@H](N)C2)n(Cc2cc(F)ccc2C#N)c1=O` [TRE-IV, 2-[[6-[(3R)-3-aminopiperidin-1-yl]-3-methyl-2,4-dioxopyrimidin-1-yl]methyl]-4-fluorobenzonitrile], the solubility by setting is: (pH = 1.2 hydrochloric acid) 73.49 mg/mL (≈ 206 mM); (pH = 6.8 PBS) 35.05 mg/mL (≈ 98.1 mM); under setting [1], 19.56 mg/mL (≈ 54.7 mM); (pH = 7.4 PBS) 35.94 mg/mL (≈ 101 mM).

For `Cn1c(=O)cc(N2CCC[C@@H](N)C2)n(Cc2cc(F)ccc2C#N)c1=O` [TRE-II, 2-[[6-[(3R)-3-aminopiperidin-1-yl]-3-methyl-2,4-dioxopyrimidin-1-yl]methyl]-4-fluorobenzonitrile], the solubility is given as 45.91 mg/mL (≈ 128 mM) (pH = 1.2 hydrochloric acid), 40.01 mg/mL (≈ 112 mM) (pH = 6.8 PBS), 15.98 mg/mL (≈ 44.7 mM) under setting [1] and 37.32 mg/mL (≈ 104 mM) (pH = 7.4 PBS).
